Values of other authors as cited in patent publication US20200289439A1, “Process of Manufacturing a Stable, Ready To Use Infusion Bag For An Oxidation Sensitive Formulation” (InnoPharma Licensing, LLC, priority 2013, published 2020).

Columns and labels:
[1] = intravenous; therapeutic dosing, up to 4,000 mg daily
[2] = six adult volunteers

For CC(=O)Nc1ccc(O)cc1 [Acetaminophen, N-(4-hydroxyphenyl)acetamide], the hepatotoxicity [1] is given as “rarely associated with hepatotoxicity”, the “mean intravenous Cmax compared to oral route” value ([2]; intravenous vs oral) is given as “nearly two” and the “mean intravenous Cmax compared to rectal route” value ([2]; intravenous vs rectal) is given as “four fold higher”.
